Measurements: patent publication US9670227B2, “Thienopyrimidine derivatives, a process for their preparation and pharmaceutical compositions containing them” (LES LABORATOIRES SERVIER, priority 2013, dated 2017)
Read-outs that look alike come from different tables or passages of the source.

Columns and labels:
[1] = test system: H929 multiple myeloma tumour line; assay: In vitro cytotoxicity, Microculture Tetrazolium Assay; type: cell-based; conditions: H929 cells, 48 hours exposure, MTT, read-out: IC50 (μM) MTT H929
Description: The cytotoxicity studies were carried out on the H929 multiple myeloma tumour line.
The cells are distributed onto microplates and exposed to the test compounds for 48 hours.

[2] = molecular target: Mcl-1 protein (UniProtKB primary accession number: Q07820) (Homo sapiens, UniProt Q07820); assay: Inhibition of Mcl-1 by fluorescence polarisation, Method 1; type: binding; conditions: fluorescence polarisation test; Method 2 values are underlined in the patent (underlining not visible here); read-out: IC50 (M) Mcl-1 FP
In short: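 Compounds were tested as 11-point serial dilutions at 5% final DMSO against 5 nM Mcl-1 with 1 nM fluorescein-labelled ligand in 10 mM HEPES, 150 mM NaCl, 0.05% Tween 20, pH 7.4. Relative binding potency was read by fluorescence polarisation.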

Sequence of Mcl-1 protein (Q07820 whole entry): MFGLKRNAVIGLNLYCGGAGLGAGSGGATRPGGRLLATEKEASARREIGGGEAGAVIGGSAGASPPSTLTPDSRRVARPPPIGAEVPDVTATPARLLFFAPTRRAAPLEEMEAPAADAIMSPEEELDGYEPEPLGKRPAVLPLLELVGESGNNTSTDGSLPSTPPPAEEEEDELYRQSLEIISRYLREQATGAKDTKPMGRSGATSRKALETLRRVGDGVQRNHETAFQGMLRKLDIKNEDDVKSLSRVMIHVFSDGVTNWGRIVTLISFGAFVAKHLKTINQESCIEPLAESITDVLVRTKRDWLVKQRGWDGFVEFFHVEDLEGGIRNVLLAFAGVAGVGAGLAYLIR

Structure (SMILES)	IC50 [2] [M]	IC50 ([1]; Homo sapiens, NCI-H929, 48 h) [µM]	IC50 [1] [µM]
Cc1c(-c2c(-c3ccco3)sc3ncnc(OC(Cc4ccccc4OCc4cccnc4)C(=O)O)c23)ccc(OCCN2CCN(C)CC2)c1Cl [Example 242, (2R)-2-{[(5Sa)-5-{3-chloro-2-methyl-4-[2-(4-methylpiperazin-1-yl)ethoxy]phenyl}-6-(furan-2-yl)thieno[2,3-d]pyrimidin-4-yl]oxy}-3-[2-(pyridin-3-ylmethoxy)phenyl]propanoic acid]	7.3e-09	0.09	
Cc1c(-c2c(-c3ccco3)sc3ncnc(OC(Cc4ccccc4OCc4cccnn4)C(=O)O)c23)ccc(OCCN2CCN(C)CC2)c1Cl [Example 243, (2R)-2-{[(5Sa)-5-{3-chloro-2-methyl-4-[2-(4-methylpiperazin-1-yl)ethoxy]phenyl}-6-(furan-2-yl)thieno[2,3-d]pyrimidin-4-yl]oxy}-3-[2-(pyridazin-3-ylmethoxy)phenyl]propanoic acid]	5.6e-09	0.211	
Cc1c(-c2c(-c3ccco3)sc3ncnc(O[C@H](Cc4ccccc4OCc4ccco4)C(=O)O)c23)ccc(OCCN2CCN(C)CC2)c1Cl [Example 244, (2R)-2-{[(5Sa)-5-{3-chloro-2-methyl-4-[2-(4-methylpiperazin-1-yl)ethoxy]phenyl}-6-(furan-2-yl)thieno[2,3-d]pyrimidin-4-yl]oxy}-3-[2-(furan-2-ylmethoxy)phenyl]propanoic acid]	8.6e-09		0.205
Cc1c(-c2c(-c3ccco3)sc3ncnc(OC(Cc4ccccc4OCc4cccs4)C(=O)O)c23)ccc(OCCN2CCN(C)CC2)c1Cl [Example 245, (2R)-2-{[(5Sa)-5-{3-chloro-2-methyl-4-[2-(4-methylpiperazin-1-yl)ethoxy]phenyl}-6-(furan-2-yl)thieno[2,3-d]pyrimidin-4-yl]oxy}-3-[2-(thiophen-2-ylmethoxy)phenyl]propanoic acid]	5.8e-09	0.099	
Cc1c(-c2c(-c3ccco3)sc3ncnc(OC(Cc4ccccc4OCc4ccn(C)n4)C(=O)O)c23)ccc(OCCN2CCN(C)CC2)c1Cl [Example 246, (2R)-2-{[(5Sa)-5-{3-chloro-2-methyl-4-[2-(4-methylpiperazin-1-yl)ethoxy]phenyl}-6-(furan-2-yl)thieno[2,3-d]pyrimidin-4-yl]oxy}-3-{2-[(1-methyl-1H-pyrazol-3-yl)methoxy]phenyl}propanoic acid]	9.1e-09	0.324	
Cc1nccc(COc2ccccc2CC(Oc2ncnc3sc(-c4ccco4)c(-c4ccc(OCCN5CCN(C)CC5)c(Cl)c4C)c23)C(=O)O)n1 [Example 247, (2R)-2-{[(5Sa)-5-{3-chloro-2-methyl-4-[2-(4-methylpiperazin-1-yl)ethoxy]phenyl}-6-(furan-2-yl)thieno[2,3-d]pyrimidin-4-yl]oxy}-3-{2-[(2-methylpyrimidin-4-yl)methoxy]phenyl}propanoic acid]	8e-09	0.022	
Cc1c(-c2c(-c3ccco3)sc3ncnc(OC(Cc4ccccc4OCc4ccnc(C(F)(F)F)n4)C(=O)O)c23)ccc(OCCN2CCN(C)CC2)c1Cl [Example 248, (2R)-2-{[(5Sa)-5-{3-chloro-2-methyl-4-[2-(4-methylpiperazin-1-yl)ethoxy]phenyl}-6-(furan-2-yl)thieno[2,3-d]pyrimidin-4-yl]oxy}-3-(2-{[2-(trifluoromethyl)pyrimidin-4-yl]methoxy}phenyl)propanoic acid]	6.9e-09	0.015	
Cc1c(-c2c(-c3ccco3)sc3ncnc(OC(Cc4ccccc4OCc4ccnc(N(C)C)n4)C(=O)O)c23)ccc(OCCN2CCN(C)CC2)c1Cl [Example 251, (2R)-2-{[(5Sa)-5-{3-chloro-2-methyl-4-[2-(4-methylpiperazin-1-yl)ethoxy]phenyl}-6-(furan-2-yl)thieno[2,3-d]pyrimidin-4-yl]oxy}-3-(2-{[2-(dimethylamino)pyrimidin-4-yl]methoxy}phenyl)propanoic acid]	6.3e-09	0.035	
COc1nccc(COc2ccccc2CC(Oc2ncnc3sc(-c4ccco4)c(-c4ccc(OCCN5CCN(C)CC5)c(Cl)c4C)c23)C(=O)O)n1 [Example 255, (2R)-2-{[(5Sa)-5-{3-chloro-2-methyl-4-[2-(4-methylpiperazin-1-yl)ethoxy]phenyl}-6-(furan-2-yl)thieno[2,3-d]pyrimidin-4-yl]oxy}-3-{2-[(2-methoxypyrimidin-4-yl)methoxy]phenyl}propanoic acid]	7.5e-09	0.018	
Cc1c(-c2c(-c3ccco3)sc3ncnc(OC(Cc4ccccc4OCc4ccnc(OCc5ccccc5)n4)C(=O)O)c23)ccc(OCCN2CCN(C)CC2)c1Cl [Example 257, (2R)-3-(2-{[2-(benzyloxy)pyrimidin-4-yl]methoxy}phenyl)-2-{[(5Sa)-5-{3-chloro-2-methyl-4-[2-(4-methylpiperazin-1-yl)ethoxy]phenyl}-6-(furan-2-yl)thieno[2,3-d]pyrimidin-4-yl]oxy}propanoic acid]	5e-09	0.019	
Cc1c(-c2c(-c3ccco3)sc3ncnc(OC(Cc4ccccc4OCc4ccncc4)C(=O)O)c23)ccc(OCCN2CCN(C)CC2)c1Cl [Example 258, (2R)-2-{[(5Sa)-5-{3-chloro-2-methyl-4-[2-(4-methylpiperazin-1-yl)ethoxy]phenyl}-6-(furan-2-yl)thieno[2,3-d]pyrimidin-4-yl]oxy}-3-[2-(pyridin-4-ylmethoxy)phenyl]propanoic acid]	6.6e-09	0.069	
Cc1c(-c2c(-c3ccco3)sc3ncnc(OC(Cc4ccccc4OCc4ccncn4)C(=O)O)c23)ccc(OCCN2CCN(C)CC2)c1Cl [Example 259, (2R)-2-{[(5Sa)-5-{3-chloro-2-methyl-4-[2-(4-methylpiperazin-1-yl)ethoxy]phenyl}-6-(furan-2-yl)thieno[2,3-d]pyrimidin-4-yl]oxy}-3-[2-(pyrimidin-4-ylmethoxy)phenyl]propanoic acid]	5.2e-09	0.07	
Cc1c(-c2c(-c3ccco3)sc3ncnc(OC(Cc4ccccc4OCc4ccnn4C)C(=O)O)c23)ccc(OCCN2CCN(C)CC2)c1Cl [Example 260, (2R)-2-{[(5Sa)-5-{3-chloro-2-methyl-4-[2-(4-methylpiperazin-1-yl)ethoxy]phenyl}-6-(furan-2-yl)thieno[2,3-d]pyrimidin-4-yl]oxy}-3-{2-[(1-methyl-1H-pyrazol-5-yl)methoxy]phenyl}propanoic acid]	6.7e-09	0.033	

These reach a lower IC50 [2]. Values come first.

IC50 [2] [M]	Structure (SMILES)	IC50 ([1]; Homo sapiens, NCI-H929, 48 h) [µM]	IC50 [1] [µM]
4e-09	Cc1c(-c2c(-c3ccco3)sc3ncnc(OC(Cc4ccccc4OCc4ccnc(Cl)n4)C(=O)O)c23)ccc(OCCN2CCN(C)CC2)c1Cl [Example 249, (2R)-2-{[(5Sa)-5-{3-chloro-2-methyl-4-[2-(4-methylpiperazin-1-yl)ethoxy]phenyl}-6-(furan-2-yl)thieno[2,3-d]pyrimidin-4-yl]oxy}-3-{2-[(2-chloropyrimidin-4-yl)methoxy]phenyl}propanoic acid]	0.023	
3.6e-09	Cc1c(-c2c(-c3ccco3)sc3ncnc(O[C@H](Cc4ccccc4OCc4ccnc(N)n4)C(=O)O)c23)ccc(OCCN2CCN(C)CC2)c1Cl [Example 250, (2R)-3-{2-[(2-aminopyrimidin-4-yl)methoxy]phenyl}-2-{[(5Sa)-5-{3-chloro-2-methyl-4-[2-(4-methylpiperazin-1-yl)ethoxy]phenyl}-6-(furan-2-yl)thieno[2,3-d]pyrimidin-4-yl]oxy}propanoic acid]		0.499
4.2e-09	Cc1c(-c2c(-c3ccco3)sc3ncnc(OC(Cc4ccccc4OCc4ccnc(N5CCOCC5)n4)C(=O)O)c23)ccc(OCCN2CCN(C)CC2)c1Cl [Example 252, (2R)-2-{[(5Sa)-5-{3-chloro-2-methyl-4-[2-(4-methylpiperazin-1-yl)ethoxy]phenyl}-6-(furan-2-yl)thieno[2,3-d]pyrimidin-4-yl]oxy}-3-(2-{[2-(morpholin-4-yl)pyrimidin-4-yl]methoxy}phenyl)propanoic acid]	0.009	
3.1e-09	CNc1nccc(COc2ccccc2CC(Oc2ncnc3sc(-c4ccco4)c(-c4ccc(OCCN5CCN(C)CC5)c(Cl)c4C)c23)C(=O)O)n1 [Example 253, (2R)-2-{[(5Sa)-5-{3-chloro-2-methyl-4-[2-(4-methylpiperazin-1-yl)ethoxy]phenyl}-6-(furan-2-yl)thieno[2,3-d]pyrimidin-4-yl]oxy}-3-(2-{[2-(methylamino)pyrimidin-4-yl]methoxy}phenyl)propanoic acid]	0.041	
3.3e-09	Cc1c(-c2c(-c3ccco3)sc3ncnc(OC(Cc4ccccc4OCc4ccnc(NCc5ccccc5)n4)C(=O)O)c23)ccc(OCCN2CCN(C)CC2)c1Cl [Example 254, (2R)-3-(2-{[2-(benzylamino)pyrimidin-4-yl]methoxy}phenyl)-2-{[(5Sa)-5-{3-chloro-2-methyl-4-[2-(4-methylpiperazin-1-yl)ethoxy]phenyl}-6-(furan-2-yl)thieno[2,3-d]pyrimidin-4-yl]oxy}propanoic acid]	0.044	
1.7e-09	Cc1c(-c2c(-c3ccco3)sc3ncnc(OC(Cc4ccccc4OCc4ccnn4C(C)C)C(=O)O)c23)ccc(OCCN2CCN(C)CC2)c1Cl [Example 261, (2R)-2-{[(5Sa)-5-{3-chloro-2-methyl-4-[2-(4-methylpiperazin-1-yl)ethoxy]phenyl}-6-(furan-2-yl)thieno[2,3-d]pyrimidin-4-yl]oxy}-3-(2-{[1-(propan-2-yl)-1H-pyrazol-5-yl]methoxy}phenyl)propanoic acid]	0.018	
